From paper PMC8079714 (Nature Communications, 2021)
Where “and” joins values, the source holds several entries; their conditions need not be identical. Identical values can stand only once.

Tested on: N. benthamiana leaves
Conditions: in vivo

## TPGFHALVKPVRDEVIPAGKPYTLEWQPGG [MoSNP30rec]
  sites showing a visible cell death response out of total infiltrated sites: 1/10 and 3/30

## TAGFDAISVPTNGQVVKVGDVLDITWAPNA [SsSNP30rec]
  sites showing a visible cell death response out of total infiltrated sites: 9/10 and 10/10 and 28/30

## TAGFDAISVPTNGQVVQVGDVLDITWAPNS [BcSNP30rec]
  sites showing a visible cell death response out of total infiltrated sites: 10/10 and 30/30

## DPIYTPNSGETIDAGAPYTVTW [SGP123-44rec]
  sites showing a visible cell death response out of total infiltrated sites: 10/10 and 30/30

## NPDFNPVNKPTPNEKIPAGSTYKIEWTAPA [VdSNP30rec]
  sites showing a visible cell death response out of total infiltrated sites: 1/10 and 3/30

## TAGFDAVLTPAKDEVVAAGSSYTITWDYSS [VmSNP30rec]
  sites showing a visible cell death response out of total infiltrated sites: 0/10 and 0/30

## W44A (FDPIYTPNSGETIDAGAPYTVTA)
  sites showing a visible cell death response out of total infiltrated sites: 0/5 and 0/15

## TPDFDPIYTPKKDEVVAAGSPLVITWDAPA [CpSNP30rec]
  sites showing a visible cell death response out of total infiltrated sites: 9/10 and 10/10 and 28/30

## TADFDPIFKPEAWQSVAAGQSFQITWDAPA [FsSNP30rec]
  sites showing a visible cell death response out of total infiltrated sites: 9/10 and 27/30

## VADFDPVLTPTNWEEVSAGKTLEITWQAKP [FvSNP30rec]
  sites showing a visible cell death response out of total infiltrated sites: 0/10 and 0/30
